According to patent publication US10689343B2, “Inhibitors of tryptophan 2,3-dioxygenase” (NETHERLANDS TRANSLATIONAL RESEARCH CENTER B.V., priority 2016, dated 2020):

How the values were obtained:
CYP2D6 = CYP2D6 (Homo sapiens, UniProt P10635); experiment: P450-Glo CYP2D6 Luc-IP assay
Recombinant TDO = molecular target: T1, Recombinant TDO (Homo sapiens, UniProt P48775); experiment: Biochemical assay for TDO (NFK GreenScreen); conditions: 50 nM TDO, 200 μM L-tryptophan
T1 construct: Recombinant TDO (Seegers, N., et al.) and all other assay components were diluted in TDO reaction buffer
T1 sequence (P48775 whole entry): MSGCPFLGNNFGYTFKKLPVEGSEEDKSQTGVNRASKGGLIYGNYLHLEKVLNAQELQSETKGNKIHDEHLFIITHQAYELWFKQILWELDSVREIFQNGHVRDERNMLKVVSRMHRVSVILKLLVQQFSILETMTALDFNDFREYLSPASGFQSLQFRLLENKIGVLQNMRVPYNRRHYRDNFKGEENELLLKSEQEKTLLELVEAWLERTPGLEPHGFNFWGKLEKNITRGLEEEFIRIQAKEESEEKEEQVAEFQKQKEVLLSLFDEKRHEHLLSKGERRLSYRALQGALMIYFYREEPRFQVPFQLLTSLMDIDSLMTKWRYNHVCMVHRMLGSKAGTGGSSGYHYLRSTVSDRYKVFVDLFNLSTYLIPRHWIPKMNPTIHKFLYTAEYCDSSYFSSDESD
Experimental: Biochemical Assay for TDO
The NFK GreenScreen™ assay technology was also used to determine the inhibitory activity of compounds on TDO (Seegers, N., et al., J. Biol. Screen. 19: 1266; 2014). Compounds were serially diluted in DMSO and finally in TDO reaction buffer, consisting of 100 mM NaH2PO4, pH 7.0, supplemented with 0.02% Tween-20 (cat. No. P7949; Sigma Aldrich). Recombinant TDO (Seegers, N., et al.) and all other assay components were diluted in TDO reaction buffer. 10 μl of compound solution and 20 μl of enzyme solution supplemented with 200 μM ascorbic acid were combined in the well of a black 384-well plate (cat. no. 3573; Corning, Corning, N.Y., USA), and incubated for 60 min at room temperature. Subsequently, 10 μl of 0.8 mM of the substrate L-tryptophan was added, i.e., the final concentration of L-tryptophan was 200 μM. The DMSO concentration in the assay was 0.3%. The concentration of TDO was 50 nM. Incubation was continued for 15 min at room temperature. Then, 10 μl of NFK Green™ (NTRC, Oss, The Netherlands) was added, the plate was sealed, and the reaction was developed for 3 hours at 37° C. To determine the production of N-formyl kynurenine (NFK), the seal was removed and fluorescence was read on an EnVision multimode reader (Perkin Elmer, Waltham, Mass., USA). IC50 were calculated using XLfit™ software (ID Business Solutions, Ltd., Surrey, U.K.).

CYP3A4 = CYP3A4 (Homo sapiens, UniProt P08684); experiment: P450-Glo CYP3A4 luciferin isopropylacetal (Luc-IP) assay
CYP3A4, sequence (P08684 whole entry): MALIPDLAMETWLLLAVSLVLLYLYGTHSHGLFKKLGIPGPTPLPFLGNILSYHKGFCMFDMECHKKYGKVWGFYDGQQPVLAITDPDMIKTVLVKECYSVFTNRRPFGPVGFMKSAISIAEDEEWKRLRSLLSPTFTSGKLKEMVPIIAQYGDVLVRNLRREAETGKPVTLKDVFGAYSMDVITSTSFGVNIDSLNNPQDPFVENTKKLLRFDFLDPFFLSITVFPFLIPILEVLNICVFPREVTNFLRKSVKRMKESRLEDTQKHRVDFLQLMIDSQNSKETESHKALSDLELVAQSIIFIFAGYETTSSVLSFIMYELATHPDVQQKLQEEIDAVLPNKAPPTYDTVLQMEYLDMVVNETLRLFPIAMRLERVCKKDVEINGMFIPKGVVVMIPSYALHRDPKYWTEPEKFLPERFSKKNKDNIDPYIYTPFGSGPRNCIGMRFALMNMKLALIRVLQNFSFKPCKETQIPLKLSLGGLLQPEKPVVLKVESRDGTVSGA
Text: To determine the inhibitory potency of compounds on CYP3A4 enzyme, the P450-Glo CYP3A4 luciferin isopropylacetal (Luc-IP) assay was used (Promega, Madison, Wis., USA, Cat. No. V9920). The assay makes use of a luminogenic isopropylacetal (IPA) substrate that is a derivative from beetle luciferin, a substrate of luciferase enzymes. The IPA substrate is converted by CYP3A4 to luciferin, which in turn reacts with luciferase to produce an amount of light that is directly proportional to the activity of CYP3A4. Compounds were serially diluted in DMSO and finally in 400 mM K2HPO4, pH 7.4. 5 μl of compound solution and 5 μl of CYP3A4/substrate solution were combined in the well of a white 384-well Optiplate (Perkin Elmer). The DMSO concentration in the assay was 0.1%. After incubation for 10 minutes at room temperature in the dark, 10 μl of NADPH regeneration system was added and incubation was continued for 10 min. Then, 20 μl of Luciferin Detection Reagent was added to stop the reaction, and incubation was continued for another 20 min. Luminescence was measured on an Envision multimode reader and IC50 values were calculated using XLfit™. […] Instead of in a 96-well plate, the assay was performed in 384-well white Perkin Elmer Optiplate (cat. no. 6007290).

CYP2D6, sequence (P10635 whole entry): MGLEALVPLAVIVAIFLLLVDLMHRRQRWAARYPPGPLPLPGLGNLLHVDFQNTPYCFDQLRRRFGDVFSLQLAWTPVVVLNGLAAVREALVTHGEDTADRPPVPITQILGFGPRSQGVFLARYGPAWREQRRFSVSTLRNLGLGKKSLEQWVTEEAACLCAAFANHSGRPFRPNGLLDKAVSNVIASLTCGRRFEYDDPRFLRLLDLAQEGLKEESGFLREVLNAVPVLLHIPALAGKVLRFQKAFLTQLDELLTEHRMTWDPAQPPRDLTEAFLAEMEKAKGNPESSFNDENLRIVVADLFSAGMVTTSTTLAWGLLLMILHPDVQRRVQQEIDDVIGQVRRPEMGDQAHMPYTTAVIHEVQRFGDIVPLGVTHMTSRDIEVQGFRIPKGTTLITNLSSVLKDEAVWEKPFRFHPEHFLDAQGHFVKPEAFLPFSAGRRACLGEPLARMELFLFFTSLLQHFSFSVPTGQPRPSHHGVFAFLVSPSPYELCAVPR

Compound | IC50 (CYP2D6) | IC50 (Recombinant TDO) | IC50 (CYP3A4)
O=C(NOC[C@H](O)CO)c1ccc(-c2c[nH]c3cc(F)ccc23)cc1 [Example 67, N-[(2R)-2,3-dihydroxypropoxy]-4-(6-fluoro-1H-indol-3-yl)benzamide] | > 10 µM | < 1 µM | 5 to 10 µM
CNC(=O)Nc1ccc(-c2c[nH]c3cc(F)ccc23)cc1 [Example 5, 1-[4-(6-Fluoro-1H-indol-3-yl)phenyl]-3-methyl-urea] | > 10 µM | < 1 µM | > 10 µM
O=C(NC[C@H]1CCNC1)c1ccc(-c2c[nH]c3cc(F)ccc23)cc1 [Example 91, 4-(6-Fluoro-1H-indol-3-yl)-N-[[(3S)-pyrrolidin-3-yl]methyl]benzamide] | > 10 µM | < 1 µM | 5 to 10 µM
CC(C)(O)CC(=O)Nc1ccc(-c2c[nH]c3cc(F)ccc23)cc1 [Example 35, N-[4-(6-fluoro-1H-indol-3-yl)phenyl]-3-hydroxy-3-methyl-butanamide] | > 10 µM | < 1 µM | > 10 µM
Cc1cc(C(=O)N[C@H]2CCCNC2)ccc1-c1c[nH]c2cc(F)ccc12 [Example 130, 4-(6-Fluoro-1H-indol-3-yl)-3-methyl-N-[(3S)-3-piperidyl]benzamide] | > 10 µM | < 1 µM | 5 to 10 µM
O=C(CC1CC1)Nc1ccc(-c2c[nH]c3cc(F)ccc23)cc1 [Example 28, 2-Cyclopropyl-N-[4-(6-fluoro-1H-indol-3-yl)phenyl]acetamide] | > 10 µM | 1 to 5 µM | > 10 µM
O=C(CC1(O)CCCC1)Nc1ccc(-c2c[nH]c3cc(F)ccc23)cc1 [Example 98, N-[4-(6-fluoro-1H-indol-3-yl)phenyl]-2-(1-hydroxycyclopentyl)acetamide] | > 10 µM | < 1 µM | > 10 µM
CC(C)NC(=S)N1CCC[C@@H](CNC(=O)c2ccc(-c3c[nH]c4cc(F)ccc34)cc2)C1 [Example 92, 4-(6-Fluoro-1H-indol-3-yl)-N-[[(3S)-1-(isopropylcarbamothioyl)-3-piperidyl]methyl]benzamide] | > 10 µM | 1 to 5 µM | > 10 µM
CCNCC(=O)Nc1ccc(-c2c[nH]c3cc(F)ccc23)cc1 [Example 29, 2-(Ethylamino)-N-[4-(6-fluoro-1H-indol-3-yl)phenyl]acetamide] | > 10 µM | < 1 µM | > 10 µM
N#CCC(=O)Nc1ccc(-c2c[nH]c3cc(F)ccc23)cc1 [Example 32, 2-Cyano-N-[4-(6-fluoro-1H-indol-3-yl)phenyl]acetamide] | > 10 µM | < 1 µM | > 10 µM
Nc1ccn(C(=O)c2ccc(-c3c[nH]c4cc(F)ccc34)cc2)n1 [Example 85, (3-Aminopyrazol-1-yl)-[4-(6-fluoro-1H-indol-3-yl)phenyl]methanone] | 5 to 10 µM | 1 to 5 µM | > 10 µM
Cc1cc(C(=O)N[C@H](C)CO)ccc1-c1c[nH]c2cc(F)ccc12 [Example 128, 4-(6-Fluoro-1H-indol-3-yl)-N-[(1R)-2-hydroxy-1-methyl-ethyl]-3-methyl-benzamide] | 5 to 10 µM | 1 to 5 µM | 5 to 10 µM
CN(C)C(=O)Nc1ccc(-c2c[nH]c3cc(F)ccc23)cc1 [Example 7, 3-[4-(6-Fluoro-1H-indol-3-yl)phenyl]-1,1-dimethyl-urea] | > 10 µM | 1 to 5 µM | > 10 µM
CN1CC(C(=O)Nc2ccc(-c3c[nH]c4cc(F)ccc34)cc2)CCC1=O (centres unmarked) [Example 108, N-[4-(6-fluoro-1H-indol-3-yl)phenyl]-1-methyl-6-oxo-piperidine-3-carboxamide] | > 10 µM | 1 to 5 µM | > 10 µM
O=C(NCC1CC(F)(F)C1)c1ccc(-c2c[nH]c3cc(F)ccc23)cc1 [Example 9, N-[(3,3-difluorocyclobutyl)methyl]-4-(6-fluoro-1H-indol-3-yl)benzamide] | > 10 µM | < 1 µM | > 10 µM
CCOC(=O)N1CCCC(NC(=O)c2ccc(-c3c[nH]c4cc(F)ccc34)cc2)C1 (centres unmarked) [Example 121, Ethyl 3-[[4-(6-fluoro-1H-indol-3-yl)benzoyl]amino]piperidine-1-carboxylate] | > 10 µM | < 1 µM | > 10 µM
O=C(NOC(CO)CO)c1ccc(-c2c[nH]c3cc(F)ccc23)cc1 [Example 65, 4-(6-Fluoro-1H-indol-3-yl)-N-[2-hydroxy-1-(hydroxymethyl)ethoxy]benzamide] | > 10 µM | < 1 µM | 5 to 10 µM
CCCC(C)NC(=O)c1ccc(-c2c[nH]c3cc(F)ccc23)cc1 (centres unmarked) [Example 22, 4-(6-Fluoro-1H-indol-3-yl)-N-(1-methylbutyl)benzamide] | > 10 µM | < 1 µM | > 10 µM
O=C(CC1COC1)Nc1ccc(-c2c[nH]c3cc(F)ccc23)cc1 [Example 30, N-[4-(6-fluoro-1H-indol-3-yl)phenyl]-2-(oxetan-3-yl)acetamide] | > 10 µM | < 1 µM | > 10 µM
C[C@H](NC(=O)c1ccc(-c2c[nH]c3cc(F)ccc23)cc1)C(C)(C)C [Example 88, 4-(6-Fluoro-1H-indol-3-yl)-N-[(1S)-1,2,2-trimethylpropyl]benzamide] | > 10 µM | 1 to 5 µM | > 10 µM
Cc1cc(CC(=O)Nc2ccc(-c3c[nH]c4cc(F)ccc34)cc2)no1 [Example 99, N-[4-(6-Fluoro-/H-indol-3-yl)phenyl]-2-(5-methylisoxazol-3-yl)acetamide] | > 10 µM | 1 to 5 µM | > 10 µM
Cc1cc(C(=O)N[C@@H](C)CO)ccc1-c1c[nH]c2cc(F)ccc12 [Example 126, 4-(6-Fluoro-1H-indol-3-yl)-N-[(1S)-2-hydroxy-1-methyl-ethyl]-3-methyl-benzamide] | 5 to 10 µM | 1 to 5 µM | 5 to 10 µM
O=C(NCC(F)(F)F)c1ccc(-c2c[nH]c3ccc(F)cc23)cc1 [Example 39, 4-(5-Fluoro-1H-indol-3-yl)-N-(2,2,2-trifluoroethyl)benzamide] | > 10 µM | < 1 µM | > 10 µM
O=C(CCc1ccccc1)Nc1ccc(-c2c[nH]c3cc(F)ccc23)cc1 [Example 96, N-[4-(6-fluoro-1H-indol-3-yl)phenyl]-3-phenyl-propanamide] | > 10 µM | 1 to 5 µM | > 10 µM
O=C(N[C@H]1CCCNC1)c1ccc(-c2c[nH]c3ccc(F)cc23)cc1 [Example 41, 4-(5-Fluoro-1H-indol-3-yl)-N-[(3S)-3-piperidyl]benzamide] | > 10 µM | < 1 µM | > 10 µM
COC(=O)CNC(=O)c1ccc(-c2c[nH]c3cc(F)ccc23)cc1 [Example 138, Methyl 2-[[4-(6-fluoro-1H-indol-3-yl)benzoyl]amino]acetate] | > 10 µM | < 1 µM | > 10 µM
COCC(C)C(=O)Nc1ccc(-c2c[nH]c3cc(F)ccc23)cc1 (centres unmarked) [Example 33, N-[4-(6-fluoro-1H-indol-3-yl)phenyl]-3-methoxy-2-methyl-propanamide] | > 10 µM | < 1 µM | > 10 µM
O=C(Nc1ccc(-c2c[nH]c3cc(F)ccc23)cc1)C1CCC1(F)F (centres unmarked) [Example 101, 2,2-Difluoro-N-[4-(6-fluoro-1H-indol-3-yl)phenyl]cyclobutanecarboxamide] | > 10 µM |  | > 10 µM
